Measured values taken from patent US4595689A, “4-(8-bromodibenz[b,f]oxepin-10-yl)-1,2,3,6-tetrahydro-1-methylpyridine and 4-(2-bromodibenzo[a,d]cyclophetatriene-11-yl)-1,2,3,6-tetrahydro-1-methy lpyridine for dermal inflammation” (Hoffmann-LaRoche Inc., priority 1984, dated 1986).

Test system: cantharidin-induced inflammation of rat ear
Assay: Cantharidin induced inflammation in the rat (topical activity, ear skin punch weight)
Assay type: in vivo, rat (Charles River CD, 21-day-old male)
Conditions: topical dose 100 μg, with 400 μg cantharidin in 0.1 ml vehicle on rat ears; 72 hours
Protocol: CANTHARIDIN INDUCED INFLAMMATION IN THE RAT
A solvent vehicle was prepared which was used to apply cantharidin or cantharidin and test compound to rats. The solvent vehicle was a solution of 1 part ethanol, 1.5 parts collodion, 2 parts acetone and 3 parts diethylether. When it was desired to apply cantharidin to rats, cantharidin was added to the solvent vehicle in such an amount that there were 400 μg of cantharidin in 0.1 ml of solvent vehicle. When it was desired to apply cantharidin and test compound to rats, cantharidin and test compound were added to the solvent vehicle in such amounts that there were both 400 μg of cantharidin and 100 μg of test compound in 0.1 ml of solvent vehicle. Cantharidin or cantharidin plus the test compound at a dose of 100 μg were applied topically to the outer surface of the ears of Charles River CD 21-day-old male rats in a volume of 0.1 ml of solvent vehicle described above. Separate groups of rats were treated with solvent vehicle alone, cantharidin alone, and cantharidin plus test compound. Autopsy was carried out 72 hours after cantharidin administration. Uniform punches were obtained through the site of application and weighed. Weight changes reflect effects on both the fluid and tissue components of the inflammatory process. […]

Compound	% Inhibition of Inflammation
CN1CC=C(C2=Cc3ccccc3Oc3ccc(Br)cc32)CC1 [4-(8-bromodibenz[b,f]oxepin-10-yl)-1,2,3,6-tetrahydro-1-methylpyridine]	36%
CN1CC=C(C2=Cc3ccccc3Cc3ccc(Br)cc32)CC1 [4-(2-bromodibenzo[a,d]cycloheptatriene-11-yl)-1,2,3,6-tetrahydro-1-methylpyridine]	37%
